The values that follow come from publication PMC7555035, “In Vitro Inhibition of Phosphodiesterase 3B (PDE 3B) by Anthocyanin-Rich Fruit Juice Extracts and Selected Anthocyanins” (International Journal of Molecular Sciences, 2020).

In general, IC50 refers to the point on the concentration scale where inhibition reaches its midpoint.

The structures appear in SMILES notation. “Also recorded” adds a separate entry of the source.

One series relates to human PDE 5A1. Also noted: method as in PMID 15769121. The note with it: cited from earlier work.
In series [1] the target is T1, PDE 3B (recombinant, EC 3.1.4.17) (Homo sapiens, UniProt Q13370).
T1 construct: purchased Sigma Aldrich (St. Louis, MO, USA)
Briefly: cAMP-specific PDE activity assay (cell-free, radiochemical). Format: biochemical. The following applies: for IC50: mean ± SD, n = 3–4, read-out: IC50 of cyanidin and anthocyanins; for influence on PDE activity (in words): c = 25–2000 µM; for IC50 of single anthocyanins: given in µg/mL. How it is done: The inhibitory effect of each extract on PDE 3B was measured according to the method published by Pöch et al. with slight modifications. One hundred microliters (100 µL) of the sample and 20 µL of PDE 3B (200 Units/mL) were incubated for 15 min at 4°C. Afterwards, a 50 µL volume of cAMP Mix (30 mM Tris/HCl pH 7.4, 9 mM MgCl2, 3 mM 5′AMP, 3 µM cAMP, 2.6 µCi/mL [2,8-^3H]-cAMP) was added and the mixture incubated for 25 min at 37 °C to allow for reaction. […] Experiments were performed in triplicate, and IC50 values were determined after at least three independent experiments. The ranges of test concentrations of extracts and single substances were intentionally chosen to align with similar ranges used for previous studies (extracts < 600 µg/mL; ACs < 2000 µM) to facilitate comparison with previous experiments.

In series [2] the test system is phosphodiesterase from rat adipocytes. Details: method as in PMID 1384499. The note with it: cited from earlier work.
Series [3] deals with phosphodiesterase 3′,5′-cyclic nucleotide 5′nucleotidohydrolase. Details: method as in PMID 18617377. The following applies: 0.01%, diluted in dimethyl sulfoxide; cited from earlier work.
Series [4] has as its system PDE isolated from the lung tumor xenograft cell line LXFL529L. Details: method as in PMID 29113064. The note with it: cited from earlier work.
The test system of another series is PDE 1. Details: method as in PMID 27558680. The note with it: in vitro; cited from earlier work.
The subject of series [5] is cytosolic PDE activity in HT29 cells. Details: method as in PMID 15497183. The note with it: cited from earlier work.
Details of series [6]: method as in PMID 22913378. The note with it: cited from earlier work.
Series [7] concerns PDE in human platelet lysates. Details: method as in PMID 25247601. The following applies: in vitro; cited from earlier work.

T1 sequence (Q13370 whole entry, species assumed): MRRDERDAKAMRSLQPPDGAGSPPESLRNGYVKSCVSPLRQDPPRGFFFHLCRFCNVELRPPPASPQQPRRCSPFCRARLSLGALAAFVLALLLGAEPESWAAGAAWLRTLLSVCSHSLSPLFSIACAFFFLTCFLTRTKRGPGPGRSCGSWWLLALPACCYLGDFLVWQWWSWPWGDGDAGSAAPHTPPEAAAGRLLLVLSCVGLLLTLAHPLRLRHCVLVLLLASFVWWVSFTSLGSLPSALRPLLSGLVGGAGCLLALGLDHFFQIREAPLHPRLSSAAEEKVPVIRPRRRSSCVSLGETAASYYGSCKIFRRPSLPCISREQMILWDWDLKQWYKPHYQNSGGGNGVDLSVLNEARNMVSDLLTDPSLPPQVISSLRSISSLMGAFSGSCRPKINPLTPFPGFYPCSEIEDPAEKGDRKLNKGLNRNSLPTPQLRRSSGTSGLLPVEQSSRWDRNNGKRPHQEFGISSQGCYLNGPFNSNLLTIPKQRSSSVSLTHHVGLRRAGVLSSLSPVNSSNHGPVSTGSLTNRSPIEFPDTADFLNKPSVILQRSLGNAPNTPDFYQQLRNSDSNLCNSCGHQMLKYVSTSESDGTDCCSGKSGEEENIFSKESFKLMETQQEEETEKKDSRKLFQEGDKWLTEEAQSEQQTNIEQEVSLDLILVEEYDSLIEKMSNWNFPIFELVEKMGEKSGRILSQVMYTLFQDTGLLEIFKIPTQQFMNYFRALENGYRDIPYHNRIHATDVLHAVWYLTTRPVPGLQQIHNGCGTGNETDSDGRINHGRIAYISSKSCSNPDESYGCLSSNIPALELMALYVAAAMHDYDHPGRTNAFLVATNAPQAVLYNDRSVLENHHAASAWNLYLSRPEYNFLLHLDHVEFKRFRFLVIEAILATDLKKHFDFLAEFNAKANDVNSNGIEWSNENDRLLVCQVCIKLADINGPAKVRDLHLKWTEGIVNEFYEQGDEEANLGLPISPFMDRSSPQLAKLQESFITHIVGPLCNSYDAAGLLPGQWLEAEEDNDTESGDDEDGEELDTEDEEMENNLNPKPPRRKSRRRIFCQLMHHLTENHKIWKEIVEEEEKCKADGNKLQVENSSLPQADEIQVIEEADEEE

Turning to `COc1cc(-c2[o+]c3cc(O)cc(O)c3cc2O)cc(OC)c1O` [malvidin], the IC50 in the series on human PDE 5A1 was 24.9 µM.

Take `COc1cc(-c2[o+]c3cc(O)cc(O)c3cc2O[C@@H]2O[C@H](CO)[C@@H](O)[C@H](O)[C@H]2O)cc(O)c1O.[Cl-]` [petunidin-3-glucoside, petunidin-3-glucoside chloride]: in series [1] (c = 600 µM), the “rel. PDE activity (% of solvent control)” value is “around 40%”. The IC50 in series [1] was 448 ± 39 µM.

Regarding `OC[C@H]1O[C@@H](Oc2cc3c(O[C@@H]4O[C@H](CO)[C@@H](O)[C@H](O)[C@H]4O)cc(O)cc3[o+]c2-c2ccc(O)c(O)c2)[C@H](O)[C@@H](O)[C@@H]1O.[Cl-]` [cyanidin-3,5-diglucoside, cyanidin-3,5-diglucoside chloride], in series [1], the “influence on PDE activity (in words)” value is “inactive; also recorded: no effect”.

In the case of `O=c1c(O)c(-c2ccc(O)c(O)c2)oc2cc(O)cc(O)c12` [Quercetin], in [2], the “inhibitory potency relative to 3-isobutyl-2-methylxanthine (in words)” value is recorded as “comparable to or greater than 3-isobutyl-2-methylxanthine”.

Turning to `OC[C@H]1O[C@@H](Oc2cc3c(O)cc(O)cc3[o+]c2-c2ccc(O)c(O)c2)[C@H](O)[C@@H](O)[C@@H]1O.[Cl-]` [cyanidin-3-glucoside, cyanidin-3-glucoside chloride], the PDE inhibition in series [3] was 99%. In [1] (c = 600 µM), the “inhibition of PDE 3B” value is 63% and the “rel. PDE activity (% of solvent control)” value is recorded as “around 40%”. In series [1], the “IC50 of single anthocyanins” value is listed as 134 ± 25 µg/mL and the IC50 is 299 ± 56 µM.

Regarding `O=c1cc(-c2ccc(O)c(O)c2)oc2cc(O)cc(O)c12` [luteolin], the “inhibitory potency relative to 3-isobutyl-2-methylxanthine (in words)” value in series [2] is reported as “comparable to or greater than 3-isobutyl-2-methylxanthine”. In addition, the half-inhibitory concentration (IC50) in series [4] is 41 ± 10 µM.

As for `COc1cc(-c2[o+]c3cc(O)cc(O)c3cc2O[C@@H]2O[C@H](CO)[C@@H](O)[C@H](O)[C@H]2O)ccc1O.[Cl-]` [peonidin-3-glucoside, Peonidin-3-glucoside chloride], in series [1], the “concentration above which PDE activity significantly diminished” value is on record as “above 55 µM”, the “IC50 of single anthocyanins” value is recorded as 56 ± 20 µg/mL and the IC50 was found to be 120 ± 44 µM. For the same compound, the “rel. PDE 3B activity (% of solvent control)” value in series [1] (c = 271 µM) was “comparable to those seen with caffeine”.

`O=C(O)c1cc(O)c(O)c(O)c1` [gallic acid]: the concentration for half-maximal inhibition (IC50) in the series on PDE 1 is 325 ± 3.62 µM.

Turning to `COc1cc(-c2[o+]c3cc(O)cc(O)c3cc2O[C@@H]2O[C@H](CO)[C@@H](O)[C@H](O)[C@H]2O)cc(OC)c1O.[Cl-]` [malvidin-3-glucoside, malvidin-3-glucoside chloride], in series [1] (c = 1328 µM), the “minimum rel. PDE activity (% of solvent control)” value is 71.4 ± 9.7%. Besides, the 50% inhibitory concentration (IC50) in the series on human PDE 5A1 was 35.4 µM.

`CC(C)Cn1c(=O)n(C)c(=O)c2[nH]cnc21`: the IC50 in series [2] was 30 to 50 µM.

As to `Oc1cc(O)c2cc(O[C@@H]3OC[C@H](O)[C@H](O)[C@H]3O)c(-c3ccc(O)c(O)c3)[o+]c2c1.[Cl-]` [cyanidin-3-arabinoside, cyanidin-3-arabinoside chloride], the “rel. PDE activity (% of solvent control)” value in [1] (c = 600 µM) is reported as 32.3 ± 2.9%. Also, in series [1], the “IC50 of single anthocyanins” value came out at 108 ± 6 µg/mL and the half-inhibitory concentration (IC50) was 257 ± 13 µM.

With `OC[C@H]1OC(Oc2cc3c(O)cc(O)cc3[o+]c2-c2ccc(O)c(O)c2)[C@H](O)[C@@H](O)[C@H]1O.[Cl-]` (stereo partly drawn) [cyanidin-3-galactoside, cyanidin-3-galactoside chloride], in series [1], the “concentration below which no influence on PDE activity” value is “below 884 µM” and the “influence on PDE activity (in words)” value was “little PDE inhibition”. In addition, the “rel. PDE activity (% of solvent control)” value in [1] (c = 2000 µM) is on record as 52.3 ± 13.7%.

On to `O=C(/C=C/c1ccc(O)c(O)c1)O[C@@H]1[C@H](O)C[C@@](O)(C(=O)O)C[C@H]1OC(=O)/C=C/c1ccc(O)c(O)c1` (stereo in doubt) [3,4-dicaffeoylquinic acid], for which the IC50 in series [4] is > 1000 µM.

In the case of `O=c1c(-c2ccc(O)cc2)coc2cc(O)cc(O)c12` [genistein], in [2], the “inhibitory potency relative to 3-isobutyl-2-methylxanthine (in words)” value is on record as “comparable to or greater than 3-isobutyl-2-methylxanthine”.

Regarding `O=C(/C=C/c1ccc(O)c(O)c1)O[C@@H]1C[C@](O)(C(=O)O)C[C@@H](O)[C@H]1O` [chlorogenic acid], the IC50 in the series on PDE 1 was 36.7 ± 1.6 µM.

Take `O=c1c(O)c(-c2cc(O)c(O)c(O)c2)oc2cc(O)cc(O)c12` [myricetin]: the concentration for half-maximal inhibition (IC50) in [2] was 125 µM.

Take `C[C@@H]1O[C@@H](OC[C@H]2O[C@@H](Oc3cc4c(O)cc(O)cc4[o+]c3-c3ccc(O)c(O)c3)[C@H](O)[C@@H](O)[C@@H]2O)[C@H](O)[C@H](O)[C@H]1O.[Cl-]` [cyanidin-3-rutinoside, cyanidin-3-rutinoside chloride]: the “influence on PDE activity (in words)” value in [1] is “inactive”.

On to `Oc1cc(O)c2cc(O)c(-c3ccc(O)c(O)c3)[o+]c2c1` [cyanidin, cyanidin chloride], for which, in series [1] (c = 11 µM, read-out: rel. PDE 3B activity (% of solvent control)), the remaining activity at 11 µM worked out at 94.7 ± 2.8%. Also, in [1] (c = 271 µM, read-out: rel. PDE 3B activity (% of solvent control)), the remaining activity at 271 µM is 28.7 ± 6.5%. The IC50 in series [1] was 105 ± 11 µM; in [5], ~175 µM. For the same compound, the “stability in cell culture medium (in words)” value in series [6] is on record as “degraded rapidly”.

Take `O=c1c(O)c(-c2ccc(O)cc2)oc2cc(O)cc(O)c12` [kaempferol]: the IC50 in series [2] is 58 µM.

On to `Cn1c(=O)c2c(ncn2C)n(C)c1=O` [caffeine], for which the PDE inhibition in [3] is on record as 56%. In addition, the IC50 in series [7] is 700 µM.
